Data on 36 compounds can be found in patent US10266526B2, “Substituted 1,2,3-triazoles as SMYD inhibitors for treating cancer” (EPIZYME, INC., priority 2014, dated 2019).

A value given as a limit tells only on which side of the number the result lay.

In this test the target is SMYD2 (Homo sapiens (Human), UniProt Q9NRG4). As to the kind of experiment: SMYD2 biochemical assay (SMYD2 enzyme assay on peptide substrate, 3H-SAM Flashplate). The note with it: read-out: SMYD2 Biochem IC50; IC50 values are an average of n = 1 to n = 50.
SMYD2, sequence (Q9NRG4 whole entry): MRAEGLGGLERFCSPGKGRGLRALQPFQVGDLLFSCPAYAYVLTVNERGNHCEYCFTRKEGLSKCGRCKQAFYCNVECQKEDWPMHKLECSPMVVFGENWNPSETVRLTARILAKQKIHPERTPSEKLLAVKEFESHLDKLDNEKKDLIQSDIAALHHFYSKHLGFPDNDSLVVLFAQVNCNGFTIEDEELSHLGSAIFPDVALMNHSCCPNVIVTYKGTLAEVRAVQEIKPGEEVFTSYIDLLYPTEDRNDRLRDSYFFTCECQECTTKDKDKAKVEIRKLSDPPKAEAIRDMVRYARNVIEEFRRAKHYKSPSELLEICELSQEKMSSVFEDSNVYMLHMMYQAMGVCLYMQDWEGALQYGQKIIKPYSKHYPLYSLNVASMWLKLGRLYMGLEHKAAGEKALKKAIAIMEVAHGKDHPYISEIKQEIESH
Excerpt: S-adenosylmethionine (SAM), S-adenosylhomocysteine (SAH), bicine, Tween20, dimethylsulfoxide (DMSO), bovine skin gelatin (BSG), and Tris(2-carboxyethyl)phosphine hydrochloride (TCEP) were purchased from Sigma-Aldrich at the highest level of purity possible. ^3H-SAM was purchase from American Radiolabeled Chemicals with a specific activity of 80 Ci/mmol. 384-well streptavidin Flashplates were purchased from PerkinElmer.
The sequence was [sequence](K-Biot)-amide.
Production of Recombinant SMYD2 Enzymes for Biochemical Enzyme Activity Assays
Full length SMYD2 (NP_064582.2) was cloned into a pFastbac-Htb-lic vector with an N-terminal His6 tag and FLAG tag, preceded by a TEV protease cleavage site. The protein was expressed in Sf9 insect cells. Cells were resuspended in lysis buffer (25 mM HEPES-NaOH, pH 7.5, 200 mM NaCl, 5% glycerol, and 5 mM (3-ME) and lysed by sonication. The protein was purified by Ni-NTA (Qiagen), followed by TEV cleavage to remove the His6 tag, subtractive Ni-NTA (Qiagen), and gel filtration chromatography using an S200 column (GE Healthcare). Purified protein was stored in 20 mM Tris-HCl, pH 8.0, 100 mM NaCl, and 1 mM TCEP.
General Procedure for SMYD2 Enzyme Assays on Peptide Substrates
The assays were all performed in a buffer consisting of 20 mM Bicine (pH=7.6), 1 mM TCEP, 0.005% Bovine Skin Gelatin, and 0.002% Tween20, prepared on the day of use. […] DMSO (1 ul) was added to Columns 11, 12, 23, 24, rows A-H for the maximum signal control and 1 ul of SAH, a known product and inhibitor of SMYD2, was added to columns 11, 12, 23, 24, rows I-P for the minimum signal control. A cocktail (40 ul) containing the SMYD2 enzyme was added by Multidrop Combi (Thermo-Fisher). The compounds were allowed to incubate with SMYD2 for 30 min at room temperature, then a cocktail (10 ul) containing ^3H-SAM and peptide was added to initiate the reaction (final volume=51 ul). […] The assays were stopped by the addition of non-radioactive SAM (10 ul) to a final concentration of 600 uM, which dilutes the ^3H-SAM to a level where its incorporation into the peptide substrate is no longer detectable. 50 ul of the reaction in the 384-well polypropylene plate was then transferred to a 384-well Flashplate and the biotinylated peptides were allowed to bind to the streptavidin surface for at least 1 hour before being washed three times with 0.1% Tween20 in a Biotek ELx405 plate washer. The plates were then read in a PerkinElmer TopCount plate reader to measure the quantity of ^3H-labeled peptide bound to the Flashplate surface, measured as disintegrations per minute (dpm) or alternatively, referred to as counts per minute (cpm).
Where dpm=disintegrations per minute, cmpd=signal in assay well, and min and max are the respective minimum and maximum signal controls.
Where top and bottom are the normally allowed to float, but may be fixed at 100 or 0 respectively in a 3-parameter fit. The Hill Coefficient normally allowed to float but may also be fixed at 1 in a 3-parameter fit. I is the compound concentration.
As for `CN(C)CCNC(=O)c1cn(C2CC2)nn1` [compound 834, 1-cyclopropyl-N-[2-(dimethylamino)ethyl]-1H-1,2,3-triazole-4-carboxamide], the IC50 was greater than 50000 nM.
Next, `CCn1cc(CN2CC(NC(=O)c3cn(C4CC4)nn3)C2)cn1` [compound 946, 1-cyclopropyl-N-(1-((1-ethyl-1H-pyrazol-4-yl)methyl)azetidin-3-yl)-1H-1,2,3-triazole-4-carboxamide]: 2000 nM; `C[C@H](c1ccccc1)N1CC(NC(=O)c2cn(C3CC3)nn2)C1` [compound 720, 1-cyclopropyl-N-{1-[(1R)-1-phenylethyl]azetidin-3-yl}-1H-1,2,3-triazole-4-carboxamide]: 23300 nM.
Next, `CC(c1c(F)cccc1F)N1CC(NC(=O)c2cn(C3CC3)nn2)C1` (stereo not drawn) [compound 742, 1-cyclopropyl-N-{1-[1-(2,6-difluorophenyl)ethyl]azetidin-3-yl}-1H-1,2,3-triazole-4-carboxamide]: 2850 nM.
The figure for `CC[C@@H](c1cccc(Cl)c1)N1CC(NC(=O)c2cn(C3CC3)nn2)C1` [compound 837, N-{1-[(1S)-1-(3-chlorophenyl)propyl]azetidin-3-yl}-1-cyclopropyl-1H-1,2,3-triazole-4-carboxamide] is 340 nM.
On to `O=C(NC1CN(Cc2cnn(CCc3ccccc3)c2)C1)c1cc(C2CC2)cnn1` [compound 807, 5-cyclopropyl-N-(1-{[1-(2-phenylethyl)-1H-pyrazol-4-yl]methyl}azetidin-3-yl)pyridazine-3-carboxamide], for which the IC50 amounted to 528 nM.
As for `O=C(NC1CN(Cc2cnn(Cc3ccccc3Cl)c2)C1)c1cn(C2CC2)nn1` [compound 942, N-(1-((1-(2-chlorobenzyl)-1H-pyrazol-4-yl)methyl)azetidin-3-yl)-1-cyclopropyl-1H-1,2,3-triazole-4-carboxamide], the IC50 was determined as 110 nM.
In the case of `COc1ccc(C(C)N2CC(NC(=O)c3cn(C4CC4)nn3)C2)c(OC)c1` (stereo not drawn) [compound 801, 1-cyclopropyl-N-{1-[1-(2,4-dimethoxyphenyl)ethyl]azetidin-3-yl}-1H-1,2,3-triazole-4-carboxamide], the IC50 was determined as 1060 nM.
As for `CC(c1cccc(OCC(C)(C)O)c1Cl)N1CC(NC(=O)c2cn(C3CC3)nn2)C1` (stereo not drawn) [compound 956, N-(1-(1-(2-chloro-3-(2-hydroxy-2-methylpropoxy)phenyl)ethyl)azetidin-3-yl)-1-cyclopropyl-1H-1,2,3-triazole-4-carboxamide], the IC50 stood at 2600 nM.
Regarding `COc1cccc(C(C)N2CC(NC(=O)c3cn(C4CC4)nn3)C2)c1Cl` (stereo not drawn) [compound 803, N-{1-[1-(2-chloro-3-methoxyphenyl)ethyl]azetidin-3-yl}-1-cyclopropyl-1H-1,2,3-triazole-4-carboxamide], the IC50 came to 69.5 nM.
The figure for `COc1ccccc1[C@H](C)N1CC(NC(=O)c2cc(C3CC3)cnn2)C1` [compound 841, 5-cyclopropyl-N-{1-[(1S)-1-(2-methoxyphenyl)ethyl]azetidin-3-yl}pyridazine-3-carboxamide] is 5010 nM; for `CC(C)(c1ccc(OCc2ccccc2)cc1)N1CC(NC(=O)c2cn(C3CC3)nn2)C1` [compound 980, N-(1-(2-(4-(benzyloxy)phenyl)propan-2-yl)azetidin-3-yl)-1-cyclopropyl-1H-1,2,3-triazole-4-carboxamide] it is 990 nM.
On to `CC(NC(=O)c1cn(C2CC2)nn1)C1CCCCN1C` (stereo not drawn) [compound 979, 1-cyclopropyl-N-(1-(1-methylpiperidin-2-yl)ethyl)-1H-1,2,3-triazole-4-carboxamide], for which the IC50 was greater than 50000 nM.
In the case of `O=C(NC1CN(Cc2cccc(OCCO)c2)C1)c1cn(C2CC2)nn1` [compound 734, 1-cyclopropyl-N-(1-{[3-(2-hydroxyethoxy)phenyl]methyl}azetidin-3-yl)-1H-1,2,3-triazole-4-carboxamide], the IC50 was found to be 2310 nM.
Consider `COc1ccc2c(c1)CCCC2N1CC(NC(=O)c2cn(C3CC3)nn2)C1` (stereo not drawn) [compound 793, 1-cyclopropyl-N-[1-(6-methoxy-1,2,3,4-tetrahydronaphthalen-1-yl)azetidin-3-yl]-1H-1,2,3-triazole-4-carboxamide], for which the IC50 was determined as 9920 nM.
With `CC(c1cccc(OCCN(C)C)c1Cl)N1CC(NC(=O)c2cn(C3CC3)nn2)C1` (stereo not drawn) [compound 977, N-(1-(1-(2-chloro-3-(2-(dimethylamino)ethoxy)phenyl)ethyl)azetidin-3-yl)-1-cyclopropyl-1H-1,2,3-triazole-4-carboxamide], the half-inhibitory concentration (IC50) stood at 7500 nM.
`O=C(NC1CN(C2(c3ccccc3)COC2)C1)c1cn(C2CC2)nn1` [compound 781, 1-cyclopropyl-N-[1-(3-phenyloxetan-3-yl)azetidin-3-yl]-1H-1,2,3-triazole-4-carboxamide]: the IC50 was greater than 50000 nM.
Regarding `COc1cc(C(C)N2CC(NC(=O)c3cn(C4CC4)nn3)C2)ccc1F` (stereo not drawn) [compound 732, 1-cyclopropyl-N-{1-[1-(4-fluoro-3-methoxyphenyl)ethyl]azetidin-3-yl}-1H-1,2,3-triazole-4-carboxamide], the IC50 came out at 2590 nM.
Next, `CC(C)N1CC(NC(=O)c2cn(C3CC3(F)F)nn2)C1` (stereo not drawn) [compound 770, 1-(2,2-difluorocyclopropyl)-N-[1-(propan-2-yl)azetidin-3-yl]-1H-1,2,3-triazole-4-carboxamide]: 4190 nM.
As for `CC(C)N1CC(NC(=O)c2cn(CCO)nn2)C1` [compound 703, 1-(2-hydroxyethyl)-N-[1-(propan-2-yl)azetidin-3-yl]-1H-1,2,3-triazole-4-carboxamide], the IC50 was greater than 50000 nM.
As for `O=C(NC1CN(Cc2cnn(CC3CCOCC3)c2)C1)c1cn(C2CC2)nn1` [compound 949, 1-cyclopropyl-N-(1-((1-((tetrahydro-2H-pyran-4-yl)methyl)-1H-pyrazol-4-yl)methyl)azetidin-3-yl)-1H-1,2,3-triazole-4-carboxamide], the IC50 was 2400 nM.
Consider `CC(c1ccc(OCCc2ccccc2)cc1)N1CC(NC(=O)c2cn(C3CC3)nn2)C1` (stereo not drawn) [compound 853, 1-cyclopropyl-N-(1-{1-[4-(2-phenylethoxy)phenyl]ethyl}azetidin-3-yl)-1H-1,2,3-triazole-4-carboxamide], for which the IC50 came out at 776 nM.
As for `CC(c1ccccc1Cl)N1CC(NC(=O)c2cn(C3CC3)nn2)C1` (stereo not drawn) [compound 859, N-{1-[1-(2-chlorophenyl)ethyl]azetidin-3-yl}-1-cyclopropyl-1H-1,2,3-triazole-4-carboxamide], the IC50 was found to be 160 nM.
Next, `COc1cccnc1C(C)N1CC(NC(=O)c2cn(C3CC3)nn2)C1` (stereo not drawn) [compound 725, 1-cyclopropyl-N-{1-[1-(3-methoxypyridin-2-yl)ethyl]azetidin-3-yl}-1H-1,2,3-triazole-4-carboxamide]: 1020 nM.
Consider `CC(C)N1CC(NC(=O)c2cn(C3CC3)nn2)C1` [compound 663, 1-cyclopropyl-N-[1-(propan-2-yl)azetidin-3-yl]-1H-1,2,3-triazole-4-carboxamide], for which the IC50 stood at 585 nM.
Regarding `CC(c1ccccc1C(F)(F)F)N1CC(NC(=O)c2cn(C3CC3)nn2)C1` (stereo not drawn) [compound 741, 1-cyclopropyl-N-(1-{1-[2-(trifluoromethyl)phenyl]ethyl}azetidin-3-yl)-1H-1,2,3-triazole-4-carboxamide], the IC50 is 1010 nM.
In the case of `O=C(NC1CN(Cc2ccccc2)C1)c1cn(C2CC2)nn1` [compound 672, N-(1-benzylazetidin-3-yl)-1-cyclopropyl-1H-1,2,3-triazole-4-carboxamide], the IC50 was 1550 nM.
The figure for `COc1ccc(Cn2cc(CN3CC(NC(=O)c4cn(C5CC5)nn4)C3)cn2)cc1` [compound 932, 1-cyclopropyl-N-(1-((1-(4-methoxybenzyl)-1H-pyrazol-4-yl)methyl)azetidin-3-yl)-1H-1,2,3-triazole-4-carboxamide] is 28 nM.
Regarding `CC(c1ccc2c(c1)OCCO2)N1CC(NC(=O)c2cn(C3CC3)nn2)C1` (stereo not drawn) [compound 767, 1-cyclopropyl-N-{1-[1-(2,3-dihydro-1,4-benzodioxin-6-yl)ethyl]azetidin-3-yl}-1H-1,2,3-triazole-4-carboxamide], the IC50 is 576 nM.
With `CC(c1cccc(OCCO)c1Cl)N1CC(NC(=O)c2cc(C3CC3)cnn2)C1` (stereo not drawn) [compound 652, N-(1-{1-[2-chloro-3-(2-hydroxyethoxy)phenyl]ethyl}azetidin-3-yl)-5-cyclopropylpyridazine-3-carboxamide], the IC50 amounted to 41.6 nM.
Turning to `CCCCOc1ccc(C(C)N2CC(NC(=O)c3cn(C4CC4)nn3)C2)cc1` (stereo not drawn) [compound 681, N-{1-[1-(4-butoxyphenyl)ethyl]azetidin-3-yl}-1-cyclopropyl-1H-1,2,3-triazole-4-carboxamide], the IC50 was 1290 nM.
`CC(C)N1CC(NC(=O)c2cn(C3CC3)cn2)C1` [compound 919, 1-cyclopropyl-N-(1-isopropylazetidin-3-yl)-1H-imidazole-4-carboxamide]: the IC50 is 4600 nM.
Take `COc1cc(F)ccc1C(C)N1CC(NC(=O)c2cn(C3CC3)nn2)C1` (stereo not drawn) [compound 689, 1-cyclopropyl-N-{1-[1-(4-fluoro-2-methoxyphenyl)ethyl]azetidin-3-yl}-1H-1,2,3-triazole-4-carboxamide]: the IC50 was found to be 1890 nM.
The figure for `CC(c1ccc(OCCN(C)C)cc1)N1CC(NC(=O)c2cn(C3CC3)nn2)C1` (stereo not drawn) [compound 959, 1-cyclopropyl-N-(1-(1-(4-(2-(dimethylamino)ethoxy)phenyl)ethyl)azetidin-3-yl)-1H-1,2,3-triazole-4-carboxamide] is 2000 nM; for `COc1ccc(COc2ccc(C(C)N3CC(NC(=O)c4cn(C5CC5)nn4)C3)cc2)cc1` (stereo not drawn) [compound 855, 1-cyclopropyl-N-[1-(1-{4-[(4-methoxyphenyl)methoxy]phenyl}ethyl)azetidin-3-yl]-1H-1,2,3-triazole-4-carboxamide] it is 159 nM; for `O=C(NC1CN(Cc2ccc3c(c2)C(=O)NC3)C1)c1cn(C2CC2)nn1` [compound 765, 1-cyclopropyl-N-{1-[(3-oxo-2,3-dihydro-1H-isoindol-5-yl)methyl]azetidin-3-yl}-1H-1,2,3-triazole-4-carboxamide] it is 10200 nM.
